For this test, the target named is T1, α4β1 integrin (Homo sapiens, UniProt P05556+P13612).
T1 construct: endogenous in cells; host or cells: Ramos cells
Put plainly: Adhesion of calcein-labeled Ramos cells to CS1 (fibronectin) peptide conjugated ovalbumin. Type of test: cell-based. The settings on record: Ramos cell adhesion to CS1 conjugated ovalbumin. The protocol:
A procedure in which a 26-amino acid peptide containing the CS1 sequence of fibronectin with an N-terminal Cys ([…]) was coupled to maleimide activated ovalbumin was used to determine the efficacy of the compounds synthesized. Bovine serum albumin (BSA) and CS1 conjugated ovalbumin were coated onto 96-well polystyrene plates at 0.5 μg/ml in TBS (50 mM TRIS, pH 7.5; 150 mM NaCl) at 4° C. for 16 hours. The plates were washed three times with TBS and blocked with TBS containing 3% BSA at room temperature for 4 hours. Blocked plates were washed three times in binding buffer (TBS; 1 mM MgCl2; 1 mM CaCl2; 1 mM MnCl2) prior to assay. Ramos cells fluorescently labeled with calcein AM were resuspended in binding buffer (10^7 cells/ml) and diluted 1:2 with same buffer with or without compound. 100 μM of compound was added. The cells were added immediately to the wells (2.5×10^5 cells/well) and incubated for 30 minutes at 37° C. Following three washes with binding buffer, adherent cells were lysed and quantitated using a fluorometer. IC50 is defined as the dose required to give 50% inhibition, measured in μM for Tables 2 and 4. The lower the IC50 value and the greater the percentage of inhibition, the more efficient the compound is at prevention of cell adhesion.

The mark [1] stands for this setting: Table 5, dose required to give 50% inhibition.

Drawing on patent US6972296B2, “Carboxylic acid derivatives that inhibit the binding of integrins to their receptors” (Encysive Pharmaceuticals Inc., priority 1999, dated 2005), this text covers IC50 for 70 compounds.

Where only a bound is given, the exact number is not on record here.

T1 sequence (P13612 34-1032): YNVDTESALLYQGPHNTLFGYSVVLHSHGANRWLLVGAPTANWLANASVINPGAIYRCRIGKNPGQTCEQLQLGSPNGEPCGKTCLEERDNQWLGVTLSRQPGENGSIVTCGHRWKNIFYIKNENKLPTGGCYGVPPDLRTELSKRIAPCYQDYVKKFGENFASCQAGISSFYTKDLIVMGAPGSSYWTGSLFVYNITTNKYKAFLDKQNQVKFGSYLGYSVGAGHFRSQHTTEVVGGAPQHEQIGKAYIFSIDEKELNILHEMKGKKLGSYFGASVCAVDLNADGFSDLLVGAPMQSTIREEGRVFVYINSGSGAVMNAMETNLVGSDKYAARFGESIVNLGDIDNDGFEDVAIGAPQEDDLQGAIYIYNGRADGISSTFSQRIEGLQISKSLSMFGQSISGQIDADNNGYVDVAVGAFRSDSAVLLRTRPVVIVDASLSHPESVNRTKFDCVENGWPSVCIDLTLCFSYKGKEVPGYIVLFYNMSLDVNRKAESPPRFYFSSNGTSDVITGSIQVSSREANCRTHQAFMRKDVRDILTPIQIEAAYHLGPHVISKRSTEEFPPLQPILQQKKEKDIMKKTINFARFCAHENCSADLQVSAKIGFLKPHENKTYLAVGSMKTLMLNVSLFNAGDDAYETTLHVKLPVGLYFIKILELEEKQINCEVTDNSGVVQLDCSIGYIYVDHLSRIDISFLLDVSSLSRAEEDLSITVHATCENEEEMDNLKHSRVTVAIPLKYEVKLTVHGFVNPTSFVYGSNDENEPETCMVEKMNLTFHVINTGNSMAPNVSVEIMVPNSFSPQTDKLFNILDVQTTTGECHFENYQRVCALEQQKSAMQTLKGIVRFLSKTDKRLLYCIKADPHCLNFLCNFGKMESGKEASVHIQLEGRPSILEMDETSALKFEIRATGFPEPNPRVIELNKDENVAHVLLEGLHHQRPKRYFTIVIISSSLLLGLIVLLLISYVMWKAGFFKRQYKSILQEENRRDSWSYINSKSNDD
T1 sequence (P05556 21-798): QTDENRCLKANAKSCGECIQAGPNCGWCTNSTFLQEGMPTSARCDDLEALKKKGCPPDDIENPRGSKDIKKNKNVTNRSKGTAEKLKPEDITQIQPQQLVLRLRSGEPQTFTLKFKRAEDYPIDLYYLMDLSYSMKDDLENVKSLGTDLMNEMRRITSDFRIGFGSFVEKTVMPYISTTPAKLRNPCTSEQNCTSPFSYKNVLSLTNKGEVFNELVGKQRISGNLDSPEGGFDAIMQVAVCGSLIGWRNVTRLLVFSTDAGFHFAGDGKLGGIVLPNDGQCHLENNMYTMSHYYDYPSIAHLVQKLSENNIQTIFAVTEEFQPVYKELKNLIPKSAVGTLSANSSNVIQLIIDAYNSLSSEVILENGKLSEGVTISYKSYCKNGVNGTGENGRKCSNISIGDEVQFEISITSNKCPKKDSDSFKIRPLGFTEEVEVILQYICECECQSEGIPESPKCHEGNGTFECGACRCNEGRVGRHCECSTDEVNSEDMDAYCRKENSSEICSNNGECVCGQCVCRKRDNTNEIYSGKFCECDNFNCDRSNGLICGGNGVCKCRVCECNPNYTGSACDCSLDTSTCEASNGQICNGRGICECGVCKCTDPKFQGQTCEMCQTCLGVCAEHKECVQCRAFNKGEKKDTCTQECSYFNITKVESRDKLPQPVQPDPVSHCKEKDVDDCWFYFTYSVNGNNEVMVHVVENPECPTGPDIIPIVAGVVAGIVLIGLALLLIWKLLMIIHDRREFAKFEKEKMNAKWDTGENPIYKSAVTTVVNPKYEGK

The term IC50 denotes the midpoint of a concentration-inhibition curve. Consider `O=C(O)CC(NC(=O)Nc1c(O)ccn(Cc2ccccc2Cl)c1=O)c1cccnc1` (stereo not shown), for which the IC50 under setting [1] was 0.05 µM.

`Cc1ccc(C(CC(=O)O)NC(=O)Nc2c(O)ccn(Cc3ccccc3Cl)c2=O)o1` (stereo not shown): the IC50 under setting [1] is 0.025 µM.

For `O=C(O)CC(NC(=O)Nc1c(O)ccn(Cc2ccccc2Cl)c1=O)c1ccco1` (stereo not shown), under setting [1], the IC50 is 0.05 µM.

`Cc1ccc(N(CC(=O)O)NC(=O)Nc2c(O)ccn(Cc3ccccc3Cl)c2=O)cc1`: the IC50 under setting [1] was above 10 µM.

Take `Cc1ccccc1C[C@H](CC(=O)O)NC(=O)Nc1c(O)ccn(Cc2ccccc2Cl)c1=O`: under setting [1], the IC50 was 0.08 µM.

Consider `Cc1ccc(C[C@H](CC(=O)O)NC(=O)Nc2c(O)ccn(Cc3ccccc3Cl)c2=O)cc1`, for which the IC50 under setting [1] is 0.15 µM.

Regarding `O=C(O)C[C@@H](Cc1cccc(C(F)(F)F)c1)NC(=O)Nc1c(O)ccn(Cc2ccccc2Cl)c1=O`, the IC50 under setting [1] was 0.35 µM.

For `COc1ccccc1Cn1cccc(NC(=O)N[C@@H](CC(=O)O)c2ccc3c(c2)OCO3)c1=O`, the IC50 (Table 4, 30 minutes at 37° C.) is 0.5 µM.

On to `O=C(O)C[C@H](NC(=O)Nc1cccn(Cc2ccccc2Cl)c1=O)c1ccc2c(c1)OCO2`, for which, for the setting “Table 4, 30 minutes at 37° C.”, the IC50 was 0.3 µM.

As for `N#Cc1cccc(CN2CCCCC(NC(=O)N[C@@H](CC(=O)O)c3ccc4c(c3)OCO4)C2=O)c1` (stereo partly shown), the IC50 (Table 4, 30 minutes at 37° C.) is 0.04 µM.

Take `O=C(O)C[C@H](NC(=O)Nc1cccn(Cc2cc(Cl)cc(Cl)c2)c1=O)c1ccc2c(c1)OCO2`: the IC50 (Table 4, 30 minutes at 37° C.) was 5 µM.

As for `O=C(O)C[C@H](NC(=O)Nc1cccn(Cc2ccc(F)cc2)c1=O)c1ccc2c(c1)OCO2`, under “Table 4, 30 minutes at 37° C.”, the IC50 was 2 µM.

On to `O=C(O)C[C@H](NC(=O)Nc1cccn(CCCOc2ccccc2)c1=O)c1ccc2c(c1)OCO2`, for which the IC50 (Table 4, 30 minutes at 37° C.) was 14 µM.

With `COc1cccc([C@H](CC(=O)O)NC(=O)Nc2cccn(Cc3cccs3)c2=O)c1`, where the note is “Table 4, 30 minutes at 37° C.”, the IC50 was 1.4 µM.

Turning to `Cc1ccc([C@H](CC(=O)O)NC(=O)Nc2c(O)ccn(Cc3ccccc3S(=O)(=O)N(C)C)c2=O)cc1`, the half-inhibitory concentration (IC50) under setting [1] was 0.03 µM.

With `Cc1ccc([C@H](CC(=O)O)NC(=O)Nc2c(O)ccn(Cc3ccccc3OC(F)F)c2=O)cc1`, the IC50 under setting [1] is 0.075 µM.

For `Cc1ccc([C@H](CC(=O)O)NC(=O)Nc2c(O)ccn(Cc3ccccc3Br)c2=O)cc1`, the 50% inhibitory concentration (IC50) under setting [1] is 0.015 µM.

Consider `Cc1ccc([C@H](CC(=O)O)NC(=O)Nc2c(O)ccn(Cc3cc(F)ccc3Cl)c2=O)cc1`, for which, under setting [1], the IC50 is 0.014 µM.

In the case of `COc1ccc(Cl)c(Cn2ccc(O)c(NC(=O)N[C@@H](CC(=O)O)c3ccc(C)cc3)c2=O)c1`, under setting [1], the half-maximal inhibitory concentration (IC50) was 0.012 µM.

As for `COc1cccc(Cl)c1Cn1ccc(O)c(NC(=O)N[C@@H](CC(=O)O)c2ccc(OC(F)(F)F)cc2)c1=O`, the half-maximal inhibitory concentration (IC50) under setting [1] was 0.04 µM.

Turning to `CCc1ccc([C@H](CC(=O)O)NC(=O)Nc2c(O)ccn(Cc3ccccc3Cl)c2=O)cc1CC`, the IC50 under setting [1] is 0.05 µM.

With `CCCOc1cccc([C@H](CC(=O)O)NC(=O)Nc2c(O)ccn(Cc3ccccc3Cl)c2=O)c1`, the IC50 under setting [1] is 0.003 µM.

On to `COc1c(C)cc([C@H](CC(=O)O)NC(=O)Nc2c(O)ccn(Cc3ccccc3Cl)c2=O)cc1C`, for which the IC50 under setting [1] is 0.035 µM.

Consider `O=C(O)C[C@H](NC(=O)Nc1c(O)ccn(Cc2ccccc2Cl)c1=O)C(c1ccccc1)c1ccccc1`, for which the IC50 under setting [1] was 12 µM.

For `Cc1ccc(C)c([C@H](CC(=O)O)NC(=O)Nc2c(O)ccn(Cc3ccccc3Cl)c2=O)c1`, the IC50 under setting [1] was 0.05 µM.

As to `O=C(O)C[C@H](NC(=O)Nc1c(O)ccn(Cc2ccccc2Cl)c1=O)c1cccc(OC(F)(F)F)c1`, the IC50 under setting [1] is 0.02 µM.

As to `O=C(O)C[C@H](NC(=O)Nc1c(O)ccn(Cc2ccccc2Cl)c1=O)c1ccc(F)c(C(F)(F)F)c1`, the IC50 under setting [1] was 0.025 µM.

In the case of `Cc1ccc([C@H](CC(=O)O)N(C)C(=O)Nc2c(O)ccn(Cc3ccccc3Cl)c2=O)cc1`, the IC50 under setting [1] was 0.4 µM.

`O=C(O)C[C@H](NC(=O)Nc1c(O)ccn(Cc2ccccc2Cl)c1=O)c1cc(F)cc(F)c1`: the IC50 under setting [1] is 0.05 µM.

On to `Cc1ccc([C@H](CC(=O)O)NC(=O)Nc2c(O)c3c(n(Cc4ccccc4Cl)c2=O)CCCC3)cc1`, for which the IC50 under setting [1] is 0.02 µM.

On to `Cc1ccc([C@H](CC(=O)O)NC(=O)Nc2c(O)c3c(n(Cc4ccccc4Cl)c2=O)CCCCC3)cc1`, for which the IC50 under setting [1] is 0.12 µM.

Turning to `CCCCCc1cn(Cc2ccccc2Cl)c(=O)c(NC(=O)N[C@@H](CC(=O)O)c2ccc(C)cc2)c1O`, the IC50 under setting [1] is 0.04 µM.

Regarding `CCc1c(O)c(NC(=O)N[C@@H](CC(=O)O)c2ccc(C)cc2)c(=O)n(Cc2ccccc2Cl)c1C`, under setting [1], the IC50 is 0.025 µM.

In the case of `Cc1ccc([C@H](CC(=O)O)NC(=O)Nc2cccn(Cc3ccccc3O)c2=O)cc1`, under setting [1], the IC50 is 0.2 µM.

With `COc1ccccc1Cn1cccc(NC(=O)N[C@@H](CC(=O)O)c2ccc(C)cc2)c1=O`, the IC50 under setting [1] is 0.25 µM.

Turning to `Cc1ccc([C@H](CC(=O)O)NC(=O)Nc2c(O)ccn(Cc3cccc(Cl)c3Cl)c2=O)cc1`, under setting [1], the half-maximal inhibitory concentration (IC50) was 0.13 µM.

With `Cc1ccc([C@H](CC(=O)O)NC(=O)Nc2c(O)c(C)cn(Cc3ccc(Cl)cc3Cl)c2=O)cc1`, the IC50 under setting [1] is 0.02 µM.

As for `Cc1ccc([C@H](CC(=O)O)NC(=O)Nc2c(O)ccn(Cc3ccc(F)cc3F)c2=O)cc1`, the concentration for half-maximal inhibition (IC50) under setting [1] is 0.03 µM.

Take `Cc1ccc([C@H](CC(=O)O)NC(=O)Nc2c(O)ccn(Cc3cc(C)ccc3C)c2=O)cc1`: the IC50 under setting [1] was 0.02 µM.

For `Cc1ccc([C@H](CC(=O)O)NC(=O)Nc2c(O)ccn(Cc3c(Cl)cccc3Cl)c2=O)cc1`, under setting [1], the IC50 is 0.013 µM.

As for `Cc1ccc([C@H](CC(=O)O)NC(=O)Nc2cccn(Cc3cccc(Cl)c3)c2=O)cc1`, under setting [1], the IC50 is 0.5 µM.

On to `Cc1ccc([C@H](CC(=O)O)NC(=O)Nc2c(O)ccn(Cc3cccc(Cl)c3)c2=O)cc1`, for which, under setting [1], the IC50 is 0.015 µM.

In the case of `Cc1ccc([C@H](CC(=O)O)NC(=O)Nc2c(O)ccn(Cc3ccc(Cl)c(Cl)c3)c2=O)cc1`, the IC50 under setting [1] was 0.045 µM.

Turning to `Cc1ccc([C@H](CC(=O)O)NC(=O)Nc2c(O)ccn(Cc3cc(C(F)(F)F)cc(C(F)(F)F)c3)c2=O)cc1`, under setting [1], the IC50 is 0.3 µM.

For the compound `Cc1ccc([C@H](CC(=O)O)NC(=O)Nc2c(O)ccn(Cc3cc(C)cc(C)c3)c2=O)cc1`, under setting [1], the IC50 was 0.06 µM.

For `Cc1ccc([C@H](CC(=O)O)NC(=O)Nc2c(O)ccn(Cc3ccc(S(=O)(=O)N(C)C)cc3)c2=O)cc1`, under setting [1], the IC50 is 0.035 µM.

For `COc1cc(Cl)ccc1Cn1ccc(O)c(NC(=O)N[C@@H](CC(=O)O)c2ccc(C)cc2)c1=O`, under setting [1], the IC50 was 0.025 µM.

With `CCCc1cn(Cc2ccc(Cl)cc2)c(=O)c(NC(=O)N[C@@H](CC(=O)O)c2ccc(C)cc2)c1O`, the IC50 under setting [1] was 0.03 µM.

Regarding `Cc1ccc([C@H](CC(=O)O)NC(=O)Nc2c(O)c(C)cn(Cc3ccc(Cl)cc3)c2=O)cc1`, the IC50 under setting [1] was 0.02 µM.

`Cc1ccc([C@H](CC(=O)O)NC(=O)Nc2c(O)ccn(Cc3ccc(F)cc3)c2=O)cc1`: the IC50 under setting [1] is 0.022 µM.

As to `Cc1ccc([C@H](CC(=O)O)NC(=O)Nc2c(O)ccn(Cc3ccc(C(C)(C)C)cc3)c2=O)cc1`, the IC50 under setting [1] is 0.03 µM.

`Cc1ccc([C@H](CC(=O)O)NC(=O)Nc2cc(C(F)(F)F)cn(Cc3ccccc3)c2=O)cc1`: the IC50 under setting [1] was 1.5 µM.

In the case of `O=C(O)C[C@H](NC(=O)Nc1cccn(Cc2cccs2)c1=O)c1ccccc1`, the IC50 (Table 4, 30 minutes at 37° C.) is 1 µM.

Turning to `COc1cc([C@H](CC(=O)O)NC(=O)Nc2cccn(Cc3cccs3)c2=O)cc(OC)c1OC`, the IC50 (Table 4, 30 minutes at 37° C.) is 0.3 µM.

Regarding `CSc1ccccc1Cn1ccc(O)c(NC(=O)N[C@@H](CC(=O)O)c2ccc(C)cc2)c1=O`, the IC50 under setting [1] is 0.02 µM.

`Cc1ccc([C@H](CC(=O)O)NC(=O)Nc2c(O)ccn(Cc3ccccc3C)c2=O)cc1`: the IC50 under setting [1] is 0.02 µM.

With `COc1cccc(Cn2ccc(O)c(NC(=O)N[C@@H](CC(=O)O)c3ccc(C)cc3)c2=O)c1`, the IC50 under setting [1] was 0.04 µM.

On to `Cc1ccc([C@H](CC(=O)O)NC(=O)Nc2c(O)ccn(Cc3cccc(C)c3)c2=O)cc1`, for which the IC50 under setting [1] was 0.055 µM.

`COc1ccc(Cn2ccc(O)c(NC(=O)N[C@@H](CC(=O)O)c3ccc(C)cc3)c2=O)cc1`: the IC50 under setting [1] is 0.02 µM.

As to `Cc1ccc(Cn2ccc(O)c(NC(=O)N[C@@H](CC(=O)O)c3ccc(C)cc3)c2=O)cc1`, under setting [1], the IC50 is 0.025 µM.

`Cc1ccc([C@H](CC(=O)O)NC(=O)Nc2c(O)ccn(Cc3c(C)cc(C)cc3C)c2=O)cc1`: the IC50 under setting [1] is 0.06 µM.

Take `Cc1ccc([C@H](CC(=O)O)NC(=O)Nc2c(O)ccn(Cc3ccccc3OC(F)(F)F)c2=O)cc1`: the IC50 under setting [1] was 0.025 µM.

For the compound `Cc1ccc([C@H](CC(=O)O)NC(=O)Nc2c(O)ccn(Cc3ccccc3C(F)(F)F)c2=O)cc1`, the IC50 under setting [1] is 0.02 µM.

For the compound `Cc1ccc([C@H](CC(=O)O)NC(=O)Nc2c(O)ccn(Cc3cccc(OC(F)(F)F)c3)c2=O)cc1`, the IC50 under setting [1] is 0.045 µM.

On to `Cc1ccc([C@H](CC(=O)O)NC(=O)Nc2c(O)ccn(Cc3cccc(C(F)(F)F)c3)c2=O)cc1`, for which the half-maximal inhibitory concentration (IC50) under setting [1] is 0.017 µM.

With `Cc1ccc([C@H](CC(=O)O)NC(=O)Nc2c(O)ccn(Cc3ccc(OC(F)(F)F)cc3)c2=O)cc1`, the IC50 under setting [1] is 0.025 µM.

`Cc1ccc([C@H](CC(=O)O)NC(=O)Nc2c(O)ccn(Cc3ccc(C(F)(F)F)cc3)c2=O)cc1`: the IC50 under setting [1] is 0.02 µM.

For `Cc1ccc([C@H](CC(=O)O)NC(=O)Nc2c(O)c(C)cn(Cc3ccc(S(C)(=O)=O)cc3)c2=O)cc1`, the IC50 under setting [1] was 0.02 µM.

Regarding `Cc1ccc([C@H](CC(=O)O)NC(=O)Nc2c(O)c(C)cn([C@H](C)c3ccccc3)c2=O)cc1`, the IC50 under setting [1] is 4 µM.

With `CCCCc1cn(Cc2ccccc2Cl)c(=O)c(NC(=O)N[C@@H](CC(=O)O)c2ccc(C)cc2)c1O`, under setting [1], the IC50 is 0.025 µM.
